US12059473B2, “Humanized anti-prostate -specific membrane antigen (PSMA) antibody drug conjugates” (Ambrx, Inc., priority 2018, dated 2024)

Tests used:
[1] = tested on: C4-2 human carcinoma xenografts; patient derived xenograft (PDX) TM00298 prostate tumors; test: Repeat dose and enzalutamide combination efficacy in prostate tumor models; type: in vivo, mice; conditions: enzalutamide as a single agent; prostate cancer cells
Method: Anti-tumor efficacy of the anti-PSMA ADCs of the invention in combination with hormone therapy enzalutamide was tested in tumor xenograft model in mice engrafted with prostate cancer cell line. Metastatic castration resistant prostate cancer (mCRPC) relevant cell line, C4-2, was obtained from ATCC and expanded in vitro following ATCC instructions. C4-2 human carcinoma xenografts were grown in male immune-compromised mice with cells implanted subcutaneously. A second model using male immunocompromised mice bearing patient derived xenograft (PDX) TM00298 (Jackson Laboratories, CA) prostate tumors was also studied.
Mice were weighed and measured for tumor volume using an electronic caliper. Individual tumor volume was calculated as length×width×width/2. Mice with vascularized tumors (determined by appearance) averaging a volume of 500 mm^3 were randomized into treatment groups and were dosed intravenously per individual body weight. Anti-PSMA ADCs were administered intravenously at 0.5, 1, and 3 mg/kg weekly for 4 weeks in the C4-2 model and at 1 and 3 mg/kg weekly for 4 weeks in the PDX model. In both prostate models, enzalutamide was administered orally daily at 10 mg/kg, for 28 days. In both prostate models, one group of mice were administered a combination therapy of 1 mg/kg anti-PSMA ADC plus 10 mg/kg enzalutamide, FIGS. 7 and 8. […]

[2] = tested on: cell surface PSMA expression; conditions: in vitro; Murga et al. 2015; cited from earlier work

Structure (SMILES): CNC(=O)c1ccc(N2C(=S)N(c3ccc(C#N)c(C(F)(F)F)c3)C(=O)C2(C)C)cc1F [enzalutamide]
- level of cell surface PSMA [1]: increased the level of cell surface PSMA in prostate cancer cells
- increase of cell surface PSMA expression [2]: approximately 3 fold
